Experiments:
[1] = test system: PKB; test: PKB phosphorylation immunoblot in L6 myotubes; format: cell-based, rat; details: 23.0 mM glucose; 100 nM insulin, 20 mM xylose, 5 mM EH-114 or 250 μM EH-40, up to 24 hrs (FIG. 11B)
Protocol: FIG. 11B: Effects of insulin D-xylose and xylose derivatives on PKB phosphorylation. L6 myotubes were maintained at 5.5 mM or 23.0 mM glucose. The latter were treated with 100 nM insulin, 20 mM xylose, 5 mM EH-114 or 250 μM EH-40 up to 24 hrs. At the indicated times treated myotubes were collected, homogenized and lysed and the soluble protein fraction was isolated. The control myotubes were collected at the end of the 24 hr incubation period. Equal amounts of proteins of the various treated myotubes were separated on SDS-PAGE and immunoblotted with a specific antibody against phospho-Axt1/PKBα (Ser473). In order to test whether xylose derivative activate insulin transduction elements downstream of PI3K, the inventors tested the state of PKB phosphorylation, as shown in FIG. 11B.

[2] = test system: glucose transporter; test: [3H]dGlc uptake with unlabeled carbohydrates (affinity for the glucose transporter) in C2 myotubes; format: cell-based, mouse
Protocol: FIG. 6: Lack of affinity of D-xylose for the glucose transporters. C2 myotubes preconditioned with 20 mM glucose were subjected to [^3H]dGlc uptake assay (0.1 mM dGlc) with increasing concentrations of unlabeled dGlc, glucose or xylose. The unlabeled carbohydrates were added to the [^3H]dGlc solution in the uptake assay.
The inventors have also determined the affinity of D-xylose for the glucose transporter. C2 myotubes preconditioned with 20 mM glucose were subjected to [^3H]dGlc uptake assay (0.1 mM dGlc) in the presence of increasing concentrations of unlabeled dGlc, glucose or xylose. The results of these experiments are depicted in FIG. 6. The affinity of D-xylose for the glucose transporter is 2 orders of magnitude lower compared to glucose. The final concentration of dGlc in the assay was 0.1 mM.

[3] = test system: glucose uptake in cultured cells; test: In vitro glucose uptake / hexose transport in cultured cells with xylose derivatives (Table 2); format: cell-based
Protocol: Table 2 summarizes in vitro results obtained with some of these newly synthesized xylose derivatives.
(§1) Uptake assay of the tritiated glucose analogue, 2-deoxy-D-glucose, is routinely performed as described in [Sasson, S. and Cerasi, E. (1986) J. Biol. Chem. 261, 16827-16833].
All new compounds are screened and tested first in various insulin-sensitive cell cultures used routinely in the laboratory (skeletal muscle and adipose cell lines). In addition these drugs were tested in non-insulin-sensitive cells such as primary cultures of bovine and porcine vascular endothelial and smooth muscle cells. Active compounds were tested ex-vivo on isolated rat soleus muscles. All cell cultures and tissues were maintained under hyperglycemic condition prior to the addition of the test compounds. Dose-response and time-course experiments determine which of the derivatives are subsequently tested in animal models. For each potent compound the total cell content and plasma membrane abundance of GLUT-1 and GLUT-4 was determined, as described above. The same biotinylation technique was employed to determine the total and plasma membrane content of both transporters in isolated mouse or rat soleus muscles treated with potent compounds.

[4] = test system: L6 myotubes; test: dGlc uptake assay in L6 myotubes; format: cell-based, rat; details: 60 μM inhibitor, 23.0 mM glucose (FIG. 11A); EH-40 data not shown
Protocol: FIG. 10: Western blot depicting effect of 3-O-propyl-D-xylose (EH-114), and 1,3-O-dimethylxylopyranoside (EH-101) on the total cell content and plasma membrane abundance of GLUT-4 in the absence or presence of insulin. L6 myotubes were maintained for 48 hr at 23 mM Glucose. The cells were than washed and received fresh medium containing the indicated additions and incubated for additional […]. Insulin was added during the last 30 min of incubation before the dGlc uptake assay.
FIG. 11A: Effect of LY-249002, a PI3-kinase inhibitor, on insulin, D-xylose, EH-101 and EH-114-mediated glucose uptake. L6 myotubes were treated as described in the legend to FIG. 10. The glucose concentration in the culture medium was 23.0 mM. The concentration of LY-294002 was 60 μM. At the end of incubation the cells were taken for the standard dGlc uptake assay. Mean±SEM, n=3.
GLUT-1 and GLUT-4 mediate glucose entry into L6 myotubes. It is established that GLUT-4 is translocated effectively and rapidly to the plasma membrane upon insulin treatment. The inventors looked at the effect of 3-O-propyl-D-xylose EH-114) and 1,3-O-dimethylxylopyranoside (EH-101) on the total cell content and plasma membrane abundance of these transporters in the absence or presence of insulin. L6 myotubes were maintained at 5.0 or 23.0 mM glucose for 48 hr and EH-114 and EH-101 were present during the last 24 hr. The cells were then taken for the standard [^3H]-2-deoxy-D-glucose uptake assay and for the biotinylation procedure for determining the amount of GLUT-1 and GLUT-4 in the plasma membrane. High glucose levels decreased the hexose transport rate by ˜50%. Insulin augmented the transport nearly 2-fold in both cases. EH-114 and EH-101 increased the transport rate 2-3-fold in the absence of insulin. Together with insulin the uptake rate was increased nearly 3-fold.
The inventors also tested the hypothesis that the active D-xylose derivatives augment the hexose transport capacity in L6 myotubes by translocating GLUT-4 to the plasma membrane not via the common insulin-regulated pathway. For this experiment, a selective inhibitor of the enzyme PI3-kinase, LY-249002, which is a key enzyme in the cellular transduction mechanism of insulin, was utilized. […] These findings also agree well with the longer onset of action of these derivatives as compared to the rapid action of insulin. Similar results were obtained when LY-249002 was present together with the derivatives throughout the entire incubation period.
as §1

SMILES: O=C[C@H](O)[C@@H](O)[C@H](O)CO [D-xylose]
- PKB phosphorylation [1]: failed to induce significant phosphorylation
- affinity for the glucose transporter compared to glucose ([2]; 0.1 mM dGlc (FIG. 6)): 2 orders of magnitude lower
- competition with [3H]dGlc ([2]; 0.1 mM dGlc, increasing unlabeled carbohydrate): much weaker competitor
- molar excess necessary to achieve 50% inhibition of transport ([2]; over 0.1 mM dGlc): at least 100 fold molar excess
- Fold Increase of Glucose Uptake [3]: ~2.0 fold
- EC50 ([3]; EC = Effective concentration): 12 mM
- ECmax ([3]; EC = Effective concentration): 20 mM
- time to loss of activity after being removed ([3]; after being washed from cell cultures): 10 to 20 min
- effect of PI3-kinase inhibitor LY-249002 on the substance's stimulation of hexose transport [4]: failed to affect

— patent US7812142B2, “Pentose derivatives as anti-hyperglycemic drugs” (Yissum Research Development Company of the Hebrew …, priority 2002, dated 2010)
